# Laboratory results: patent US20180008629A1, “Compositions and Methods for Treating NLRP3 Inflammasome-Related Diseases and Disorders” (priority 2015, published 2018)
# What was measured:
# NLRC4 = target: T1, NLRC4 (Mus musculus, UniProt Q3UP24); assay type: cell-based; details: BMDMs infected with Salmonella typhimurium, 0, 1, 5, or 10 mM BHB
# T1 construct: endogenous in cells; host or cells: mouse BMDMs infected with Salmonella typhimurium (SL1344)
# caspase-11 = experiment: Non-canonical inflammasome pathway, caspase-11 immunoblot in LPS treated BMDMs; assay type: cell-based, mouse; details: BMDMs treated with LPS 4 h
# BMDMs = experiment: BMDM viability and proliferation (MTT assay); assay type: cell-based, mouse
# Procedure: The BMDM proliferation in response to BHB treatment was analyzed using the MTT assay according to manufacturer's instructions. The BMDM were incubated with Asante Potassium Green 1 (APG-1) which is a fluorescent indicator with a Kd for measuring cytosolic K+ concentration. It has non-ratiometric large fluorescence dynamic range allows sensing of even small changes in K+ concentration. Optimal excitation was recorded at 517 nm. In addition, the K+ was measured in BMDMs using an ElementXR or Agilent 7700 Inductively Coupled Mass Spectrometry (ICP-MS) using previously described methods (Muñoz-Planillo et al., 2013, Immunity 38:1142-1153). For error analysis, samples and standard solutions were run in duplicate.
# ASC = target: T2, ASC (Mus musculus, UniProt Q9EPB4); experiment: ASC oligomerization and ASC speck formation in BMDMs; assay type: cell-based
# T2 construct: endogenous in cells; host or cells: mouse BMDMs primed with LPS and stimulated with ATP
# T2 sequence (Q9EPB4 1-193): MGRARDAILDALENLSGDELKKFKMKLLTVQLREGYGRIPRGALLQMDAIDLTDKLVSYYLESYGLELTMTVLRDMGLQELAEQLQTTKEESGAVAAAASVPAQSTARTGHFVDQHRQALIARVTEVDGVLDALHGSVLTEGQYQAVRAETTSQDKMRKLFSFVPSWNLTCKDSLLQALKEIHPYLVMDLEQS
# Procedure: The ASC oligomerization was performed using previously described methods (Yu et al., 2006, Cell. Death Differ. 13:236-249). BMDM were plated on chamber slides and allowed to attach overnight. The following day cells were primed with LPS and treated with ATP±BHB (10 mM) as described in the materials and methods. Cells were fixed with 4% paraformaldehyde followed by ASC (Enzo Lifesciences) and DAPI staining. ASC specks were quantified using ImageJ software. At least 5 distinct fields were analyzed and a minimum of 550 cells from each treatment condition were quantified. Data are shown as mean±SD and are representative of two independent experiments. Statistical differences were calculated by student's t-test.
# H3 acetylation = H3 acetylation in LPS primed BMDMs (western blot); assay type: cell-based, mouse; details: LPS primed BMDMs treated with ATP and BHB 1 h
# Procedure: FIG. 5, comprising FIGS. 5A-5B, depicts data from experiments examining the mechanism of BHB's anti-inflammasome effects. FIG. 5A is a representative western blot analysis of caspase-1 in BMDMs primed with LPS for 4 hours and stimulated with 2DG, AICAR, Compound C and BHB for 1 h on indicated combinations. FIG. 5B is a representative western blot examining H3 acetylation in LPS primed BMDMs treated with ATP and S- or D-BHB (R-BHB) for 1 h.
# The BMDM cell lysates were prepared using RIPA buffer and immediately snap frozen in liquid nitrogen. Samples were left on ice for 1 hour with vortexing every 10 min. Samples were then centrifuge at 14,000 g for 15 min, the supernatant was collected and the protein concentration was determined using the DC Protein Assay (Bio-RAD). The immunoblot analysis was performed using previously described methods (Vandanmagsar et al., 2011, Nat. Med. 17:179-188). The immune complexes were visualized by incubation with horseradish peroxidase-conjugated anti-rat or anti-rabbit secondary antibody (Amersham Biosciences). Immunoreactive bands were visualized by enhanced chemiluminescence (PerkinElmer Life Sciences).
# human monocytes = experiment: Cytokine secretion from LPS stimulated human monocytes (ELISA); assay type: cell-based; details: LPS (1 μg/mL) 4 h, increasing concentrations of BHB
# Procedure: The cryopreserved peripheral blood monocuclear cells were used to sort CD14+ monocytes using isolation kit from Miltenyi (130-091-153). A total of 6 healthy subjects, ([…], […], person, person, […] and […]) were used for monocyte isolations. Monocytes were seeded in 6 well plates at concentration of 3 million/mL of RPMI1640 media with 10% FCS and antibiotic/antimycotic mixture and stimulated with LPS for 4 h. The supernatants were used to measure IL-1β, IL-18 and TNF using ELISA. Human peripheral blood was collected by the Health Apheresis Unit and the Clinical Core Laboratory, the National Institute on Aging-Intramural Research Program, under Human Subject Protocol #2003054 and Tissue Procurement Protocol #2003-071.
# [1] = Gout induced by intra-articular injection of MSU in rats fed ketogenic diet; assay type: in vivo, rat; details: ketogenic diet 1 week
# Procedure: Rats were fed a ketogenic diet for 1 week prior to the induction of gout by intra-articular injection of MSU. Blood BHB levels were measured in rats after 1 week ketogenic diet feeding, prior to injection with MSU (FIG. 21A). Knee thickness was measured daily (FIG. 21B). The increase in knee swelling relative to baseline thickness was measured 2 days after gout induction (FIG. 21C). Serum IL-1β was measured by ELISA on day 2 post-MSU injection (FIG. 21D).
# [2] = due to increased clearance; literature; cited from earlier work
# NLRP3^L351P = NLRP3^L351P (Mus musculus, UniProt Q8R4B8, L351P); assay type: cell-based; parameters: endogenous in cells; Nlrp3 L351P Cre+ mice after tamoxifen in vivo (A14); details: constitutively active NLRP3 inflammasome, LPS
# NLRP3^L351P, sequence (Q8R4B8 whole entry L351P): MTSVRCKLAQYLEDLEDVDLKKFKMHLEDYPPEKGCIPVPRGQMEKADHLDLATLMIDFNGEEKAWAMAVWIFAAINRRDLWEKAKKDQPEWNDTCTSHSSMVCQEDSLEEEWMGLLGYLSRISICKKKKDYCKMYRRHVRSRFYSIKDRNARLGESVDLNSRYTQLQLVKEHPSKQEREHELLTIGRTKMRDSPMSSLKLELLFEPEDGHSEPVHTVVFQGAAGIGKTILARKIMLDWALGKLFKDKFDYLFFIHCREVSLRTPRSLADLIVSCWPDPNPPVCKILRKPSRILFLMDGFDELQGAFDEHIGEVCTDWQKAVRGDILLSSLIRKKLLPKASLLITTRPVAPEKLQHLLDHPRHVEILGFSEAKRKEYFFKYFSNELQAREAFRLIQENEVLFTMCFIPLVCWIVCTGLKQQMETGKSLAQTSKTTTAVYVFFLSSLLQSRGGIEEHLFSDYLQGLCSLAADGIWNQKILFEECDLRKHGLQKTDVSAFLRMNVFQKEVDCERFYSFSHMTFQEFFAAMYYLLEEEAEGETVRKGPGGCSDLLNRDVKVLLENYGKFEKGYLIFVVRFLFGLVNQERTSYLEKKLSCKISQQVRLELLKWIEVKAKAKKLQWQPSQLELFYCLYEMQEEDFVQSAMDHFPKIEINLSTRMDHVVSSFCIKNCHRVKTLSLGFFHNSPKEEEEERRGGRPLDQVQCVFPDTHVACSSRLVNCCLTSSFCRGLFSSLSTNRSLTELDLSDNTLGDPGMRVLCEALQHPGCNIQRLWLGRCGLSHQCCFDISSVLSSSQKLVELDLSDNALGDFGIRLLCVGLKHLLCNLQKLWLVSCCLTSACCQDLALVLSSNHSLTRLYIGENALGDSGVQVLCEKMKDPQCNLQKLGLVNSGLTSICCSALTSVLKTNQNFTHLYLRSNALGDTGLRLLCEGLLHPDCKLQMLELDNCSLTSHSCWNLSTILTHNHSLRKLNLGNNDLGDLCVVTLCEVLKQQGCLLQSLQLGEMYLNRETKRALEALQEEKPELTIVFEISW
# NLRP3 inflammasome = NLRP3 inflammasome (Mus musculus, UniProt Q8R4B8); experiment: NLRP3 inflammasome activation in LPS primed BMDMs (caspase-1 / IL-1β immunoblot); assay type: cell-based; parameters: endogenous in cells; host or cells: mouse bone marrow derived macrophages (A1)
# NLRP3 inflammasome, sequence (Q8R4B8 whole entry): as the sequence (Q8R4B8 whole entry L351P) above, with P351L counted along it
# Procedure: All steps were performed using sterile technique. Femurs were collected in RPMI (Life Technologies, Grand Island, N.Y.)+5% FBS (R5; Omega Scientific, Tarzana, Calif.). Both ends of the femur were then cut and the femur was flushed with R5. The bone marrow was centrifuge at 450 g for 5 min, the supernatant was decanted and red blood cells were lysed using ACK lysis buffer (Quality Biological, Gaithersburg, Md.). After neutralization with R5, bone marrow cells were centrifuged, resuspended in 10 ml of R5 and placed into a 6 well plate. Non-adherent cells were collected the following morning. The non-adherent cells were resuspended at 4×10^6 cells/ml in media consisting of 10 ml supernatant of non-adherent cells, 7.2 ml L929 conditioned media, 6.8 ml R5 and MCSF (long/ml; R&D Systems, Minneapolis, Minn.). An additional 2 ml of fresh media was added 4 d after isolation. Non-adherent cells were collected on day 7, separated by density gradient separation using Fico/Lite (Atlanta Biologicals, Flowery Branch, Ga.) and mononuclear cells were collected. Cells were rinsed twice with Dulbecco's PBS+2% FBS, and resuspended at 1×10^6 cells/ml. Cells were treated with ultrapure LPS (Invivogen, San Diego, Calif.) alone or in combination with 5 mM ATP (Sigma, St. Louis, Mo.) or 200 μM palmitate-BSA (Sigma). The BMDMs were also primed with ultrapure lipid A (10 μg/ml; Invivogen, San Diego, Calif.), lipoteichoic acid (10 μg/ml; Invivogen), or Pam3-CSK4 (10 μg/ml; Invivogen) for 4 hour and stimulated with various NLRP3 activators (ATP 5 mM; Sigma, MSU 250 ug/ml; Invivogen, Silica; 200 ug/ml; Invivogen, sodium palmitate; 200 μM; Sigma, ceramide C6 80 μg/ml; Cayman, and sphingosine 40 μM; Cayman, Ann Arbor, Mich.) for 1 hour together with D-BHB or L-(BHB) at indicated concentration. The cell supernatants and cell lysates were collected 1 h after BHB treatment and analyzed for caspase-1 and IL-1β.
# The BMDM cell lysates were prepared using RIPA buffer and immediately snap frozen in liquid nitrogen. Samples were left on ice for 1 hour with vortexing every 10 min. Samples were then centrifuge at 14,000 g for 15 min, the supernatant was collected and the protein concentration was determined using the DC Protein Assay (Bio-RAD). […] The immune complexes were visualized by incubation with horseradish peroxidase-conjugated anti-rat or anti-rabbit secondary antibody (Amersham Biosciences). Immunoreactive bands were visualized by enhanced chemiluminescence (PerkinElmer Life Sciences).
# T1 sequence (Q3UP24 whole entry): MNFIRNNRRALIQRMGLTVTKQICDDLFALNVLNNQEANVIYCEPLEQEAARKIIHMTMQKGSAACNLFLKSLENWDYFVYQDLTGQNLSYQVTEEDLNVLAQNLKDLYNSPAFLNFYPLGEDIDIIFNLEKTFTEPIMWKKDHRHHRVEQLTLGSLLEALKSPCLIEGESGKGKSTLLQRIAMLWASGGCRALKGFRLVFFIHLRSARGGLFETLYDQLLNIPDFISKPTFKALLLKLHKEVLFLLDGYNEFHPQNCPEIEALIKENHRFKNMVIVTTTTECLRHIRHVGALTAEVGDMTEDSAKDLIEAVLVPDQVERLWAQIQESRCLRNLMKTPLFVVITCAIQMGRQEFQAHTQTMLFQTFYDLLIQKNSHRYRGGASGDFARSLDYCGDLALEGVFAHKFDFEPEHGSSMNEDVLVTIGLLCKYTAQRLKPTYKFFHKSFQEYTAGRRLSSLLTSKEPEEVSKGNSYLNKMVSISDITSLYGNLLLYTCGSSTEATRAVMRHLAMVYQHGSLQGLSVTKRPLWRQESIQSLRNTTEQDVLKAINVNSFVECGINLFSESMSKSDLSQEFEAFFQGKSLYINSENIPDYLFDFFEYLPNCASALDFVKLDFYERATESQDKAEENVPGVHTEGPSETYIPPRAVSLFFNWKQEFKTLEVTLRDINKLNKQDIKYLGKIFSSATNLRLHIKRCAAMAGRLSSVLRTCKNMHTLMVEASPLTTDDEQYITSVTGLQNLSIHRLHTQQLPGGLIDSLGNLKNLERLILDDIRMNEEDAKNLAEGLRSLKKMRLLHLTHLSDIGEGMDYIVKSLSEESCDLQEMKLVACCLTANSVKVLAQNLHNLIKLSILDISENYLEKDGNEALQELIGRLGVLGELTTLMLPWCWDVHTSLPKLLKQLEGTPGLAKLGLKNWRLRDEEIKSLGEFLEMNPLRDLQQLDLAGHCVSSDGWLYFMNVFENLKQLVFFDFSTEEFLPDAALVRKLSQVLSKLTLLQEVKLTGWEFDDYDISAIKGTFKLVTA
smiles,measurement,setting,value
"CC(O)CC(=O)O (stereo not drawn) [BHB, β-hydroxybutyrate]",NLRC4 mediated caspase-1 cleavage,NLRC4,did not inhibit
same,caspase-11 activation,caspase-11,neither butyrate nor BHB blocks
same,cellular proliferation,BMDMs; 10 mM concentration,significantly increased
same,viability of BMDMs,BMDMs; increasing concentration of BHB,did not impair
same,ASC oligomerization in response to NLRP3 ligand ATP,"ASC; BMDMs primed with LPS (4 h), ATP and BHB 1 h, DSS cross-linked ASC",prevented
same,ASC speck formation,"ASC; BMDMs, LPS+ATP, BHB (10 mM)",prevented
same,H3 acetylation in macrophages,H3 acetylation,inducing
same,IL-1β secretion,human monocytes,dose dependently inhibited
same,IL-18 secretion,human monocytes,dose dependently inhibited
same,TNFα production,human monocytes,without significantly affecting
same,Gout-induced inflammation,[1],protect
same,serum concentration after administration,[2],insufficient to achieve sustained high serum concentration
same,ASC oligomerization in macrophages of FCAS mice,NLRP3^L351P,directly prevented
same,BHB's inhibitory effects on the inflammasome in macrophages lacking Atg5,"NLRP3 inflammasome; Atg5 deficient BMDMs, LPS, ATP, BHB (10 mM)",not required
same,ATP-induced caspase-1 activation without involvement of AMPK,NLRP3 inflammasome; BHB (10 mM) with AICAR 2 mM or Compound C 25 μM,suppressed
same,ATP-induced IL-1β activation without involvement of AMPK,NLRP3 inflammasome; BHB with AICAR or Compound C,suppressed
same,inflammasome activation after priming with Pam3-CSK4,"NLRP3 inflammasome; BMDMs primed with TLR1/2 ligand Pam3-CSK4 4 h, ATP and BHB 1 h",effectively suppressed
same,inflammasome activation after priming with lipoteichoic acid (LTA),"NLRP3 inflammasome; BMDMs primed with TLR2 agonist LTA 4 h, ATP and BHB 1 h",effectively suppressed
same,inflammasome activation after priming with lipid A,"NLRP3 inflammasome; BMDMs primed with TLR4 agonist lipid A 4 h, ATP and BHB 1 h",effectively suppressed
same,BHB's anti-inflammasome effects in BMDMs deficient in GPR109a,"NLRP3 inflammasome; Gpr109a deficient BMDMs, LPS and ATP, BHB (10, 20 mM)",could not be abrogated
same,processing of biologically active p17 form of IL-1β,"NLRP3 inflammasome; LPS primed BMDMs, ATP and BHB for 60 minutes",dose-dependently inhibited
same,ATP-induced caspase-1 cleavage,"NLRP3 inflammasome; LPS primed BMDMs, ATP and BHB for 60 minutes, Western blot of p20",dose-dependently inhibited
same,inflammasome activation by ceramides,"NLRP3 inflammasome; LPS primed BMDMs, C6 ceramide 6 h (80 μg/ml)",blocked
same,monosodium urate (MSU) crystals induced caspase-1 activation,"NLRP3 inflammasome; LPS primed BMDMs, MSU",inhibited
same,inflammasome activation by nigericin,"NLRP3 inflammasome; LPS primed BMDMs, nigericin (10 μM) 1 h",blocked
same,inflammasome activation by palmitate,"NLRP3 inflammasome; LPS primed BMDMs, palmitate (200 μM) 12 h",blocked
same,inflammasome activation by silica particles,"NLRP3 inflammasome; LPS primed BMDMs, silica 1 hour",blocked
same,inflammasome activation by sphingosine,"NLRP3 inflammasome; LPS primed BMDMs, sphingosine (50 μM) 1 h",blocked
same,BHB's inhibitory effects on NLRP3 activation after ablation of Sirt2 or UCP2,"NLRP3 inflammasome; Sirt2−/− or Ucp2−/− BMDMs, LPS and ATP, BHB (10 mM) 1 h",did not control
